Measured values: ChEMBL document CHEMBL3885861, “Open TG-GATES”

Species on record: Rattus norvegicus
Assay: Open TG-GATES - Regimen: Single
Format: toxicity, organism-based, Sprague-Dawley
Design: regimen Single, gender Male, age 6 weeks
Conditions: in vivo, po, 0 mg/kg, route gavage, dose level Control; for APTT / Bas / Eos / Fbg / Ht / MCH / MCHC / MCV / Mono / PT / Plat / RBC / Ret / WBC: tissue Blood; for KIDNEY_L / KIDNEY_R / KIDNEY_TOTAL: tissue Kidney; for LIVER: tissue Liver; for ALP / AST / BUN / CRE / Ca / Cl / DBIL / GLC / IP / K / LDH / Na / PL / RALB / TBIL / TC / TG / TP / gamma-GTP: tissue Plasma

`CC(=O)Nc1nnc(S(N)(=O)=O)s1` [ACETAZOLAMIDE] showed a TERMINAL_BW (3 h) of 214.4 g, an APTT (3 h) of 22 s and a Bas (3 h) of 0%. For the same compound, the Eos (3 h) was 0.8%, the Fbg (3 h) was 309 mg/dL and the Ht (3 h) was 39.4%. The MCH (3 h) was 21.3 pg, the MCHC (3 h) was 32.9% and the MCV (3 h) was 64.8 fL. The Mono (3 h) was 2.4%, the PT (3 h) was 16.5 s and the Plat (3 h) was 118.6 x10_4/uL. For the same compound, the RBC (3 h) was 608.6 x10_4/ul, the Ret (3 h) was 8.8% and the WBC (3 h) was 89.5 x10_2/uL. The KIDNEY_L (3 h) was 0.9 g, the KIDNEY_R (3 h) was 0.9 g and the KIDNEY_TOTAL (3 h) was 1.9 g. For the same compound, the LIVER (3 h) was 9.8 g, the ALP (3 h) was 1586.4 IU/L and the AST (3 h) was 80.2 IU/L. It also gave a BUN (3 h) of 12 mg/dL, a CRE (3 h) of 0.2 mg/dL and a Ca (3 h) of 11.1 mg/dL. The Cl (3 h) was 106.4 meq/L, the DBIL (3 h) was 0 mg/dL and the GLC (3 h) was 187.4 mg/dL. It also gave an IP (3 h) of 8.2 mg/dL, a K (3 h) of 4 meq/L and an LDH (3 h) of 235.8 IU/L. For the same compound, the Na (3 h) was 143 meq/L, the PL (3 h) was 137.6 mg/dL and the RALB (3 h) was 3.1 g/dL. It also gave a TBIL (3 h) of 0.018 mg/dL, a TC (3 h) of 78 mg/dL and a TG (3 h) of 59.8 mg/dL. For the same compound, the TP (3 h) was 5.4 g/dL, the gamma-GTP (3 h) was 1 IU/L and the TERMINAL_BW (6 h) was 207.4 g. The APTT (6 h) was 22.1 s, the Bas (6 h) was 0% and the Eos (6 h) was 0.8%. It also gave a Fbg (6 h) of 320.2 mg/dL, a Ht (6 h) of 39.1% and an MCH (6 h) of 20.8 pg. For the same compound, the MCV (6 h) was 62.8 fL, the Mono (6 h) was 2% and the PT (6 h) was 16.5 s. The Plat (6 h) was 131.7 x10_4/uL, the RBC (6 h) was 622.4 x10_4/ul and the Ret (6 h) was 8.3%. It also gave a WBC (6 h) of 79.7 x10_2/uL, a KIDNEY_L (6 h) of 1 g and a KIDNEY_R (6 h) of 0.9 g. It also gave a KIDNEY_TOTAL (6 h) of 1.9 g, an LIVER (6 h) of 9 g and an ALP (6 h) of 1340.2 IU/L. For the same compound, the AST (6 h) was 63.4 IU/L, the CRE (6 h) was 0.1 mg/dL and the Ca (6 h) was 11 mg/dL. It also gave a Cl (6 h) of 105 meq/L, a DBIL (6 h) of 0 mg/dL and a GLC (6 h) of 186.6 mg/dL. It also gave an IP (6 h) of 9.4 mg/dL, a K (6 h) of 4.3 meq/L and an LDH (6 h) of 183.6 IU/L. The Na (6 h) was 141 meq/L, the PL (6 h) was 127.8 mg/dL and the RALB (6 h) was 3 g/dL. For the same compound, the TBIL (6 h) was 0.024 mg/dL, the TC (6 h) was 78 mg/dL and the TG (6 h) was 48.2 mg/dL. It also gave a TP (6 h) of 5.3 g/dL, a gamma-GTP (6 h) of 1.2 IU/L and a TERMINAL_BW (9 h) of 212.2 g. It also gave an APTT (9 h) of 21.9 s, a Bas (9 h) of 0% and an Eos (9 h) of 0.6%. It also gave a Fbg (9 h) of 293 mg/dL, a Ht (9 h) of 39.7% and an MCH (9 h) of 20.8 pg. It also gave an MCHC (9 h) of 32.3%, an MCV (9 h) of 64.3 fL and a Mono (9 h) of 2.2%. It also gave a PT (9 h) of 16.8 s, a Plat (9 h) of 115.3 x10_4/uL and an RBC (9 h) of 616.6 x10_4/ul. It also gave a Ret (9 h) of 8.4%, a WBC (9 h) of 84.8 x10_2/uL and a KIDNEY_L (9 h) of 1 g. For the same compound, the KIDNEY_R (9 h) was 1 g, the KIDNEY_TOTAL (9 h) was 1.9 g and the LIVER (9 h) was 8.8 g. The ALP (9 h) was 1423.8 IU/L, the AST (9 h) was 70.8 IU/L and the BUN (9 h) was 11 mg/dL. The CRE (9 h) was 0.1 mg/dL, the Ca (9 h) was 10.9 mg/dL and the Cl (9 h) was 104.8 meq/L. For the same compound, the DBIL (9 h) was 0 mg/dL, the GLC (9 h) was 193 mg/dL and the IP (9 h) was 9.3 mg/dL. For the same compound, the K (9 h) was 4.1 meq/L, the LDH (9 h) was 163.2 IU/L and the Na (9 h) was 141.6 meq/L. The PL (9 h) was 113.2 mg/dL, the RALB (9 h) was 3.1 g/dL and the TBIL (9 h) was 0.024 mg/dL. The TC (9 h) was 70.2 mg/dL, the TG (9 h) was 49.8 mg/dL and the TP (9 h) was 5.4 g/dL. It also gave a gamma-GTP (9 h) of 1.2 IU/L, a TERMINAL_BW (24 h) of 228.8 g and an APTT (24 h) of 20.3 s. For the same compound, the Bas (24 h) was 0%, the Eos (24 h) was 0.6% and the Fbg (24 h) was 288.8 mg/dL. It also gave a Ht (24 h) of 38.7%, an MCH (24 h) of 20.8 pg and an MCHC (24 h) of 33.2%. It also gave an MCV (24 h) of 62.9 fL, a Mono (24 h) of 1.6% and a PT (24 h) of 16.1 s. The Plat (24 h) was 110.7 x10_4/uL, the RBC (24 h) was 616.2 x10_4/ul and the Ret (24 h) was 7.9%. It also gave a WBC (24 h) of 66.7 x10_2/uL, a KIDNEY_L (24 h) of 1 g and a KIDNEY_R (24 h) of 1 g. It also gave a KIDNEY_TOTAL (24 h) of 2 g, an LIVER (24 h) of 10.7 g and an ALP (24 h) of 1945.2 IU/L. The AST (24 h) was 80.8 IU/L, the BUN (24 h) was 15.8 mg/dL and the CRE (24 h) was 0.1 mg/dL. It also gave a Ca (24 h) of 10.7 mg/dL, a Cl (24 h) of 105.8 meq/L and a DBIL (24 h) of 0 mg/dL. The GLC (24 h) was 201.2 mg/dL, the IP (24 h) was 7.7 mg/dL and the K (24 h) was 4.1 meq/L. The LDH (24 h) was 185.8 IU/L, the Na (24 h) was 141.6 meq/L and the PL (24 h) was 137.4 mg/dL. It also gave an RALB (24 h) of 3 g/dL, a TBIL (24 h) of 0.004 mg/dL and a TC (24 h) of 71.8 mg/dL. The TG (24 h) was 97 mg/dL and the TP (24 h) was 5.4 g/dL.
